Assay results taken from patent publication US9447085B2, “Iminothiadiazine dioxides containing a thioamide, amidine, or amide oxime group as BACE inhibitors, compositions, and their use” (Merck Sharp & Dohme Corp., priority 2012, dated 2016).

Columns and labels:
[1] = biological target: purified human autoBACE-2 (Homo sapiens (Human), UniProt Q9Y5Z0); assay: BACE-2 Assay (BACE-HTRF assay); format: biochemical; settings: Ki calculated from IC50 using the Cheng-Prusoff equation; read-out: BACE2 Ki
Experimental: Inhibitor IC50s at purified human autoBACE-2 are determined in a time-resolved endpoint proteolysis assay that measures hydrolysis of the QSY7-[…]-Eu-amide FRET peptide substrate (BACE-HTRF assay). […] DMSO is present at 5% final concentration in the assay. Following laser excitation of sample wells at 320 nm, the fluorescence signal at 620 nm is collected for 400 ms following a 50 μs delay on a RUBYstar HTRF plate reader (BMG Labtechnologies). Raw RFU data is normalized to maximum (1.0 nM BACE/DMSO) and minimum (no enzyme/DMSO) RFU values. […] The Ki values are calculated from the IC50 using the Cheng-Prusoff equation.

[2] = biological target: soluble human BACE1 catalytic domain (Homo sapiens (Human), UniProt P56817); assay: BACE1 HTRF FRET Assay; format: biochemical; settings: for Ki: Ki calculated from IC50 using the Cheng-Prusoff equation
From the text: A homogeneous time-resolved FRET assay can be used to determine IC50 values for inhibitors of the soluble human BACE1 catalytic domain. This assay monitors the increase of 620 nm fluorescence that resulted from BACE1 cleavage of an APPswedish APP^swe mutant peptide FRET substrate (QSY7-[…]-Europium-amide). This substrate contains an N-terminal QSY7 moiety that serves as a quencher of the C-terminal Europium fluorophore (620 nm Em). In the absence of enzyme activity, 620 nm fluorescence is low in the assay and increased linearly over 3 hours in the presence of uninhibited BACE1 enzyme Inhibition of BACE1 cleavage of the QSY7-APP^swe-Eu substrate by inhibitors is manifested as a suppression of 620 nm fluorescence.
Reactions are initiated by addition of 10 μl of 600 nM QSY7-APP^swe-Eu substrate (200 nM final) to give a final reaction volume of 30 μl in a 384 well Nunc HTRF plate. The reactions are incubated at 30° C. for 1.5 hours. The 620 nm fluorescence is then read on a Rubystar HTRF plate reader (BMG Labtechnologies) using a 50 millisecond delay followed by a 400 millisecond acquisition time window Inhibitor IC50 values are derived from non-linear regression analysis of concentration response curves.

purified human autoBACE-2, sequence (Q9Y5Z0 63-473): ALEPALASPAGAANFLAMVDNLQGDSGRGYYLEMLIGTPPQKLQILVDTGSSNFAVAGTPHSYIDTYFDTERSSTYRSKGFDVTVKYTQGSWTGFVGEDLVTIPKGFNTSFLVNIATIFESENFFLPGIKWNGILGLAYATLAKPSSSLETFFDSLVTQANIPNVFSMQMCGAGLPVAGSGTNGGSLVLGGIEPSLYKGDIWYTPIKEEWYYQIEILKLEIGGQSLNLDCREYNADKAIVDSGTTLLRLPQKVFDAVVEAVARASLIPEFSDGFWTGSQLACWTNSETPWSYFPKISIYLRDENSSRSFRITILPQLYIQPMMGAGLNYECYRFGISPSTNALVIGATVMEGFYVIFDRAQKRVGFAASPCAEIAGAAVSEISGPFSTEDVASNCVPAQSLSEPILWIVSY
soluble human BACE1 catalytic domain, sequence (P56817 75-416): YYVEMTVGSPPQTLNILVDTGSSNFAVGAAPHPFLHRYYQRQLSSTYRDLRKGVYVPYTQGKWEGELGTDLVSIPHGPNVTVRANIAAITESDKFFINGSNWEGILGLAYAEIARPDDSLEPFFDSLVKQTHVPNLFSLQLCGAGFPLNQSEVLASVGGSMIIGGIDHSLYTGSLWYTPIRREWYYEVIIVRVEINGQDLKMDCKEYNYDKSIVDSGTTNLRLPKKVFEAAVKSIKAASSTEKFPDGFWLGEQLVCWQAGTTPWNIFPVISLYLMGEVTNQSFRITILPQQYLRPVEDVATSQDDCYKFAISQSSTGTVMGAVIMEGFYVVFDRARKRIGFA

Row | Structure (SMILES) | Ki [1] [nM] | Ki [2] [nM] | inhibition at 10 µM ([2]; @ 10 uM) [%]
1 | CO/N=C(/Nc1ccc(F)c([C@]2(C)CS(=O)(=O)N(C)C(=N)N2)c1)c1ccc(Cl)cn1 [Example 6] | 58 | 340 | 
2 | CN1C(=N)N[C@](C)(c2cc(NC(=S)c3ccc(C(F)(F)F)cn3)cc(F)c2F)CS1(=O)=O [Example 13] | 21 | 30 | 
3 | CO/N=C(/Nc1ccc(F)c([C@]2(C)CS(=O)(=O)N(C)C(=N)N2)c1)c1ccc(OC)cn1 [Example 5] | 1450 |  | 47
4 | COc1ccc(C(=S)Nc2ccc(F)c([C@]3(C)CS(=O)(=O)N(C)C(=N)N3)c2)nc1 [Example 2] | 8 | 57 | 
5 | CN1C(=N)N[C@](C)(c2cc(NC(=S)c3ccc(F)cn3)ccc2F)CS1(=O)=O [Example 4b] | 2 | 25 | 
6 | CN1C(=N)N[C@](C)(c2cc(NC(=N)c3ccc(Br)cn3)ccc2F)CS1(=O)=O [Example 7] | 148 | 371 | 
7 | COc1cnc(C(=S)Nc2ccc(F)c([C@]3(C)CS(=O)(=O)N(C)C(=N)N3)c2)cn1 [Example 4c] | 4 | 3 | 
8 | CN1C(=N)N[C@](C)(c2cc(NC(=S)c3ccc(Cl)cn3)ccc2F)CS1(=O)=O [Example 1] | 1 | 9.1 | 
9 | CN1C(=N)N[C@](C)(c2cc(NC(=S)C(F)F)ccc2F)CS1(=O)=O [Example 4] | 7 | 83 | 

More lines, now with the values ahead:

Row | Ki [1] [nM] | Ki [2] [nM] | inhibition at 10 µM ([2]; @ 10 uM) [%] | Structure (SMILES)
10 | 2 | 152 |  | COCC(=S)Nc1ccc(F)c([C@]2(C)CS(=O)(=O)N(C)C(=N)N2)c1 [Example 3]
11 | 28 | 95 |  | CN1C(=N)N[C@](C)(c2cc(NC(=S)C(F)F)cc(F)c2F)CS1(=O)=O [Example 11]
12 | 18 | 8 |  | COc1cnc(C(=S)Nc2cc(F)c(F)c([C@]3(C)CS(=O)(=O)N(C)C(=N)N3)c2)cn1 [Example 14]
13 | 6 | 188 |  | COCC(=S)Nc1cc(F)c(F)c([C@]2(C)CS(=O)(=O)N(C)C(=N)N2)c1 [Example 10]
14 | 3 | 17 |  | CN1C(=N)N[C@](C)(c2cc(NC(=S)c3ccc(F)cn3)cc(F)c2F)CS1(=O)=O [Example 12]
15 | 15 | 57 |  | COc1ccc(C(=S)Nc2cc(F)c(F)c([C@]3(C)CS(=O)(=O)N(C)C(=N)N3)c2)nc1 [Example 9]
16 | 2 | 9 |  | CN1C(=N)N[C@](C)(c2cc(NC(=S)c3ccc(Cl)cn3)cc(F)c2F)CS1(=O)=O [Example 8]
